# Results: patent US11104618B2, “Fertilizer composition and methods of making and using same” (SABIC GLOBAL TECHNOLOGIES B.V., priority 2015, dated 2021)
# Legend:
# [1] = Thermal stability of NBTPT at urea melt temperature by HPLC; assay type: physicochemical
# Experimental: The thermal stability of neat NBTPT and NBTPT contained within a core, as disclosed herein, can be determined by HPLC. For example, neat NBTPT or a core containing NBTPT can be exposed to 135° C. (133-135° C. is the typical temperature range of a urea melt) and can continuously be analyzed by HPLC every 5 min, until 30 min on analysis was reached. Such data will determine whether the NBTPT has better thermal stability when contained within a core, as compared to neat NBTPT.
# Stability of inhibitors in urea melt: Extrudates containing inhibitors were tested for their stability in urea melt using HPLC and LCMS.
# [2] = test system: Upland Crowley Soil; assay: Nitrogen loss after 17 days of exposure to soil (IFDC)
# Experimental: The nitrogen volatilization was measured in different soils for several samples and compared to products on the market, such as Agrotain®, ESN®, and SuperU®. The samples were tested in Greenville soil, Crowley soil, and Brownfield Soil. Crowley soil consists of very deep, somewhat poorly drained, very slowly permeable soils that formed in clayey fluviomarine deposits of the Pleistocene age. The soil exist in nearly level to very gently sloping soils and occur on flat coastal plains terraces. The slope is dominantly less than 1 percent but ranges to up to 3 percent. The mean annual precipitation is about 1549 mm (61 in), and the mean annual air temperature is about 20 degrees C. (68 degrees F.), where the soil is found. The soil is fine, […], and […].
Structure (SMILES),"thermal stability of neat NBTPT ([1]; neat, exposed to 133-135° C. over time, FIG. 13)","thermal stability of NBTPT within a fertilizer core particle ([1]; within a core exposed to 133-135° C. over time, FIG. 14)",Cumulative Nitrogen Loss (mg) by 17 Days ([2]; 17 days of exposure to Upland Crowley Soil),"% Urea ([2]; nitrogen loss relative to urea, 17 days, Upland Crowley Soil)","% Reduction in Nitrogen Loss ([2]; versus urea, 17 days, Upland Crowley Soil)"
"CCCCNP(N)(N)=S [NBTPT, N-(n-butyl) thiophosphoric triamide]",decomposes at this temperature over time,stable over time and does not decompose,,,
"NC(N)=O [Urea, urea]",,,299.08 mg,100%,0%
